Measurements: paper PMC9841532, “Exploring the Effect of Halogenation in a Series of Potent and Selective A2B Adenosine Receptor Antagonists” (Journal of Medicinal Chemistry, 2022)
Values after ≈ are worked out from the molar mass of the structure shown. Read-outs that look alike come from different tables or passages of the source.

Assays:
[1] = target: T1, hA1AR (Homo sapiens, UniProt P30542); test: Radioligand binding competition, [3H]DPCPX, membranes from CHO-A1 cells; settings: for % at 1 μM hA1 (percentage displacement of specific binding): [3H]DPCPX, human CHO cells, n = 2
T1 sequence (P30542 1-326): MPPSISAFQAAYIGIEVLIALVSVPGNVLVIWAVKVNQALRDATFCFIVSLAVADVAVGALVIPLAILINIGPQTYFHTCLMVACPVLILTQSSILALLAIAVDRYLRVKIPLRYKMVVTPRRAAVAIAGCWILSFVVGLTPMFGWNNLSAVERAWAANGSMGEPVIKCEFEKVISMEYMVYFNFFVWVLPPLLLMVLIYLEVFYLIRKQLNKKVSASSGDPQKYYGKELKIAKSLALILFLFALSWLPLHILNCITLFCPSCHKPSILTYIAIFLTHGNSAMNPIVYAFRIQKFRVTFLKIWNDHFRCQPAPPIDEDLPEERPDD
Outline: (§1)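 Racemates, plus selected enantiomers after chiral resolution, were tested at 25 °C, with a 60 min incubation for one subtype and 30 min for others. Non-specific binding was defined with 10 μM or 100 μM R-PIA. Bound radioactivity was counted after washing and filtration.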

[2] = target: T2, hA2AAR (Homo sapiens, UniProt P29274); test: Radioligand binding competition, [3H]ZM241385, membranes from HeLa-A2A cells; settings: for % at 1 μM hA2A (percentage displacement of specific binding): [3H]ZM241385, human HeLa cells, n = 2
T2 construct: expressed in transfected cells; host or cells: HeLa (HeLa-A2A) cell membranes
Outline: as §1

[3] = target: T3, hA2BAR (Homo sapiens, UniProt P29275); test: Radioligand binding competition, [3H]DPCPX, membranes from HEK-293-A2B cells; set-up: Exp. dG: unit not given here; settings: for Ki: read-out: Ki hA2B; for Exp. dG: experimental binding free energy, Supplementary Table S3, unit not given (errors in kcal/mol)
T3 construct: host or cells: HEK-293 (HEK-293-A2B) cell membranes
T3 sequence (P29275 1-332): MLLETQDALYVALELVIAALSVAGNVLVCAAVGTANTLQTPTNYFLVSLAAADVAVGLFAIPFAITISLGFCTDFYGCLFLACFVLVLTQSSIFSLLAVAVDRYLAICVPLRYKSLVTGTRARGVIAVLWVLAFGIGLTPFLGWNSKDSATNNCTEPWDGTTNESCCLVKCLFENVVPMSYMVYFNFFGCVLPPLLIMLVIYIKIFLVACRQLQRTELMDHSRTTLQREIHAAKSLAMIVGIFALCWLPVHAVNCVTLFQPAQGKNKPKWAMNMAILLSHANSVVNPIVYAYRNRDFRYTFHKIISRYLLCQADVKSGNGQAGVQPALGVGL
Outline: as §1

[4] = target: T4, hA3AR (Homo sapiens, UniProt P0DMS8); test: Radioligand binding competition, [3H]NECA, membranes from HeLa-A3 cells; settings: 1 μM, [3H]NECA, human HeLa cells, n = 2
T4 construct: expressed in transfected cells; host or cells: HeLa (HeLa-A3) cell membranes
T4 sequence (P0DMS8 1-318): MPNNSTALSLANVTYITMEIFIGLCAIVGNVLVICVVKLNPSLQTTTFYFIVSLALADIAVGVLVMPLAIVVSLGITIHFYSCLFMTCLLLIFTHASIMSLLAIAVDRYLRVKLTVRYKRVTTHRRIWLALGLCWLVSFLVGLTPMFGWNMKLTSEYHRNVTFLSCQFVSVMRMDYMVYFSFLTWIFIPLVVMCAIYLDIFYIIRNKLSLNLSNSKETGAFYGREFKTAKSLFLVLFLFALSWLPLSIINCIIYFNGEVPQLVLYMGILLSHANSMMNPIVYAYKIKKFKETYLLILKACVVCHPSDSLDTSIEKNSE
Outline: as §1

[5] = Solubility determination (nephelometry); type: physicochemical; settings: 1:99 DMSO/PSB buffer, PBS pH 7, 37 °C
Method: The solubility of selected compounds was evaluated by following a previously described method.[31] A 10 mM stock solution of the compound was serially diluted in 100% DMSO, and 2.5 μL of this solution was added to a 384-well UV-transparent plate (Greiner) containing 47.5 μL of PBS (pH = 7). The plate was incubated at 37 °C for 4 h, and the light scattering was measured in a NEPHELOstar Plus reader (BMG LABTECH). The data was fitted to a segmented linear regression for measuring the compound solubility.

[6] = Human microsomal stability; type: in vitro ADME; settings: human microsomes; for microsomal stability percent (percentage remanent): sampling time 60 min; for microsomal CLint at 1 h / half-life at 1 h: human, pH 7.4; for microsomal CLint at 1 h: read-out: microsomal stability Clint (intrinsic clearance); for half-life at 1 h: read-out: microsomal stability t1/2
Method: The human microsomal stability of selected compounds was evaluated by following a previously described method.[31] The human microsomes employed were purchased from Tebu-Xenotech. The compound was incubated with the microsomes at 37 °C in a 50 mM phosphate buffer (pH = 7.4) containing 3 mM MgCl2, 1 mM NADP, 10 mM glucose-6-phosphate, and 1 U/mL glucose-6-phosphate-dehydrogenase. Samples (75 μL) were taken from each well at 0, 10, 20, 40, and 60 min and transferred to a plate containing 4 °C 75 μL acetonitrile and 30 μL of 0.5% formic acid in water was added for improving the chromatographic conditions. The plate was centrifuged (46,000 g, 30 min), and supernatants were taken and analyzed in a UPLC-MS/MS (Xevo TQD, Waters) by employing a BEH C18 column and an isocratic gradient of 0.1% formic acid in water:0.1% formic acid acetonitrile (60:40). The metabolic stability of the compounds was calculated from the logarithm of the remaining compounds at each of the time point studied.

[7] = target: T5, CYP3A4 (Homo sapiens, UniProt P08684); test: CYP3A4 inhibition (fluorescence, substrates DBF or 7-BFC); type: biochemical; settings: for IC50: IC50 obtained by extrapolation with analysis software
T5 construct: host or cells: insect cell microsomes
Method: To identify potential metabolic liabilities within the series here documented, the selected A2BAR antagonists were tested in vitro for CYP3A4 inhibitory activity.
The inhibitory activity of selected compounds was evaluated by following a previously described method.[31] […] The plate was then pre-incubated at 37 °C for 5 min and the reaction initiated by the addition of a pre-warmed enzyme/substrate (E/S) mix. The E/S mix contained buffer (KH2PO4), c-DNA-expressed P450 in insect cell microsomes, substrate (DBF: dibenzylfluorescein or 7-BFC: 7-benzyloxy-4-trifluoromethyl-coumarin) and other components to give the final assay concentrations in a reaction volume of 200 μL. Reactions were terminated after various times (a specific time for each cytochrome) by addition of STOP solution (ACN/Tris–HCl 0.5 M 80:20, and NaOH 2 N for CYP3A4). Fluorescence per well was measured using a fluorescence plate reader (Tecan Infinite M1000 PRO), and percentage of inhibition was calculated. In silico predictions were performed using free web-based models (FAME 3, SmartCYP, and Xenosite).[62]−[64]

[8] = target: T1, hA1AR; settings: prototype series, [3H]DPCPX, human CHO cells ref 30, 31; cited from earlier work
[9] = target: T2, hA2AAR; settings: prototype series, human HeLa cells ref 30, 31; cited from earlier work
[10] = target: T4, hA3AR; settings: prototype series, [3H]NECA, human HeLa cells ref 30, 31; cited from earlier work
[11] = target: A2B; settings: Figure 1, representative A2B antagonists ref 28-32; read-out: Ki; cited from earlier work
[12] = displacement of specific [3H]DPCPX binding in human HEK-293 cells, n = 3
[13] = substrate 7-benzyloxy-4-trifluoromethyl-coumarin
[14] = substrate 7-benzyloxy-4-trifluoromethyl-coumarin, read-out: CYP3A4 IC50, 7-BFC
[15] = substrate dibenzylfluorescein, read-out: CYP3A4 IC50, DBF

T2 sequence (P29274 whole entry): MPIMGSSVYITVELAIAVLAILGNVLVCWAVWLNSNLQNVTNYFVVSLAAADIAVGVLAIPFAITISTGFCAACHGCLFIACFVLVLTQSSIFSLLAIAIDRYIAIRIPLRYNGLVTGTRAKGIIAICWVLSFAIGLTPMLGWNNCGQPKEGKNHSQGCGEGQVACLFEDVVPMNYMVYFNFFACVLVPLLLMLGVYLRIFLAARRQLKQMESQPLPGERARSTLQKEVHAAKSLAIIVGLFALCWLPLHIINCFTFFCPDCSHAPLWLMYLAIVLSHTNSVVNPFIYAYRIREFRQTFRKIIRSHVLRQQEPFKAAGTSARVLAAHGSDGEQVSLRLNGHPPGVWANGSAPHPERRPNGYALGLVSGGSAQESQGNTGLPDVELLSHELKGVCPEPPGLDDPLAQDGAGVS
T5 sequence (P08684 whole entry): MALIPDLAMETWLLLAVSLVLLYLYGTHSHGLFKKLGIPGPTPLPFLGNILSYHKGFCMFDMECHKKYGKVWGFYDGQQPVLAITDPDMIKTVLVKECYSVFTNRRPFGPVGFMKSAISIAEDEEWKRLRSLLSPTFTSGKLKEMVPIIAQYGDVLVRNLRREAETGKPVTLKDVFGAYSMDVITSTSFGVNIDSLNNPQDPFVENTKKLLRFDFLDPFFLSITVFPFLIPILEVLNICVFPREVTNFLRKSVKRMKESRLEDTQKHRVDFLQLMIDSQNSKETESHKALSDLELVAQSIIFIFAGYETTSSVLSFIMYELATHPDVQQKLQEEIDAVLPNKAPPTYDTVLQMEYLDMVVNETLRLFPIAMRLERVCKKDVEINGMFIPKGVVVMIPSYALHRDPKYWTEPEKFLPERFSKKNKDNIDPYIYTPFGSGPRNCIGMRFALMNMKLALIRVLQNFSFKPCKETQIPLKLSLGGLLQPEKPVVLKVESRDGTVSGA

| Compound | Ki [3, 12] | % at 1 μM hA3 (percentage displacement of specific binding) [4] | solubility at 4 h [5] | microsomal stability percent (percentage remanent) [6] | microsomal CLint at 1 h [6] | half-life at 1 h [6] | CYP3A4 % inh. at 10 μM, 7-BFC [7, 13] | Exp. dG [3] | % at 1 μM hA1 (percentage displacement of specific binding) [8] | % at 1 μM hA2A (percentage displacement of specific binding) [9] | % at 1 μM hA3 (percentage displacement of specific binding) [10] | further results |
| --- | --- | --- | --- | --- | --- | --- | --- | --- | --- | --- | --- | --- |
| CC1=C(C(=O)OC(C)C)C(c2ccco2)n2c(nc3cc(F)c(F)cc32)N1 (centres unmarked) [14b] | 11.9 ± 1.1 nM | 14% | 62 µM (≈ 23.1 µg/mL) | 20.97% | 21.6 µL/min/mg | 28.9 min | 58% |  |  |  |  | % at 1 μM hA1 (percentage displacement of specific binding) [1]: 13%; % at 1 μM hA2A (percentage displacement of specific binding) [2]: 22%; CYP3A4 % inh. at 10 μM, DBF ([7]; substrate dibenzylfluorescein): 39% |
| CC1=C(C(=O)OC(C)C)C(c2ccco2)n2c(nc3ccc(Cl)cc32)N1 (centres unmarked) [15j] | 44.3 ± 1.4 nM | 5% | 58.2 µM (≈ 21.6 µg/mL) | 16.83% | 26.4 µL/min/mg | 21.1 min | 11% | -10.03 |  |  |  | Ki ([1]; displacement of specific [3H]DPCPX binding in human CHO cells, n = 3, read-out: Ki hA1): 667 ± 12 nM; % at 1 μM hA2A (percentage displacement of specific binding) [2]: 17%; CYP3A4 % inh. at 10 μM, DBF ([7]; substrate dibenzylfluorescein): 47%; IC50 [7, 14]: > 10000 nM; IC50 [7, 15]: > 10000 nM |
| CC1=C(C(=O)OC(C)C)C(c2ccoc2)n2c(nc3cc(Cl)ccc32)N1 (centres unmarked) [16l] | 6.1 ± 0.7 nM | 1% | 21.9 µM (≈ 8.14 µg/mL) | 41.02% | 11.7 µL/min/mg | 44.8 min | 44% | -11.2 |  |  |  | % at 1 μM hA1 (percentage displacement of specific binding) [1]: 27%; Ki ([2]; displacement of specific [3H]ZM241385 binding in human HeLa cells, n = 3, read-out: Ki hA2A): 176 ± 4 nM; Ki [3]: < 10 nM; IC50 [7, 14]: > 10000 nM; IC50 [7, 15]: 6360 ± 1020 nM |
| CC1=C(C(=O)OC(C)C)C(c2cocn2)n2c(nc3cc(F)ccc32)N1 (centres unmarked) [18b] | 6.1 ± 0.3 nM | 20% | 64.6 µM (≈ 23 µg/mL) | 35.15% | 12.8 µL/min/mg | 40.8 min | 52% | -11.2 |  |  |  | % at 1 μM hA1 (percentage displacement of specific binding) [1]: 29%; % at 1 μM hA2A (percentage displacement of specific binding) [2]: 20%; Ki [3]: < 10 nM; CYP3A4 % inh. at 10 μM, DBF ([7]; substrate dibenzylfluorescein): 31%; IC50 [7, 15]: > 10000 nM |
| CCOC(=O)C1=C(C)Nc2nc3ccccc3n2C1c1ccoc1 (centres unmarked) [III] |  |  |  |  |  |  |  | -10.48 | 7% | 11% | 1% |  |
| CC1=C(C(=O)OC(C)C)C(c2ccoc2)n2c(nc3ccccc32)N1 (centres unmarked) [IV] |  |  |  |  |  |  |  | -10.83 | 12% |  | 2% |  |
| CCOC(=O)C1=C(C)Nc2nc3ccccc3n2C1c1ccco1 (centres unmarked) [I] |  |  |  |  |  |  |  | -10.8 | 5% | 14% | 1% | Ki [11]: 12 nM |
| CC1=C(C(=O)OC(C)C)C(c2ccsc2)n2c(nc3ccccc32)N1 (centres unmarked) [VIII] |  |  |  |  |  |  |  | -10.27 | 11% | 3% | 21% |  |
| CCOC(=O)C1=C(C)Nc2nc3ccccc3n2C1c1ccsc1 (centres unmarked) [VII] |  |  |  |  |  |  |  | -10.26 | 3% | 10% | 2% |  |
| CC1=C(C(=O)OC(C)C)C(c2cccs2)n2c(nc3ccccc32)N1 (centres unmarked) [VI] |  |  |  |  |  |  |  | -8.767 | 1% | 17% | 3% |  |
| CCOC(=O)C1=C(C)Nc2nc3ccccc3n2C1c1cccs1 (centres unmarked) [V] |  |  |  |  |  |  |  |  | 8% | 16% | 1% |  |
| CC(=O)[C@H]1CC[C@H]2[C@@H]3CCC4=CC(=O)CC[C@]4(C)[C@H]3CC[C@]12C [progesterone, reference compound] |  |  | 6.7 µM (≈ 2.11 µg/mL) |  |  |  |  |  |  |  |  |  |
